Measurements from US6586443B1, “Method of treating multiple sclerosis” (priority 1986, dated 2003).

Legend:
[1] = case report: low dose naltrexone in multiple sclerosis; type: in vivo, human; settings: person
Experimental: This gradually cleared over a two month period. […] This gradually cleared. An attack of transverse myelitis at the lower thoracic level occurred four months later, their third attack in eight months. As they were recovering from this attack, they started on naltrexone, 1.75 mg per day at bedtime. […] This attack involved weakness and numbness of the left arm.

[2] = test system: Mu and Delta opiate receptor sites; settings: generally rated; cited from earlier work
[3] = test system: genital herpes (herpes simplex virus (HSV) type No. 2); experiment: case report: low dose naltrexone in chronic genital herpes; type: in vivo, human
Experimental: A person has had genital herpes for 13 years, experiencing a severe painful attack with several lesions for the 4-5 days preceding each menstrual period during most of that time. They were started on low dose naltrexone (1.75 mg per day at bedtime). […] Ten months later the dosage was increased to 2.75 mg/day also taken at bedtime. In the entire period of naltrexone treatment covering a number of months, they have had only two attacks each occurring 2-3 weeks after they ran out of naltrexone and interrupted the treatment temporarily.

[4] = recent press reports; cited from earlier work

O=C1CC[C@@]2(O)[C@H]3Cc4ccc(O)c5c4[C@@]2(CCN3CC2CC2)[C@H]1O5 [naltrexone]
multiple sclerosis attacks after start of naltrexone ([1]; 1.75 mg per day at bedtime, three attacks in eight months before treatment): only subsequent attack in the intervening period of many months occurred one year later, three weeks after they voluntarily discontinued naltrexone | multiple sclerosis attacks after resuming naltrexone ([1]; low dose naltrexone resumed after voluntary discontinuation): no attacks since | Mu blocking action relative to Delta blocking action [2]: about ten | number of genital herpes attacks in the entire period of naltrexone treatment ([3]; 1.75 then 2.75 mg/day at bedtime, each attack 2-3 weeks after treatment was temporarily interrupted): two | effect on genital herpes attacks after start of treatment ([3]; person, 1.75 mg per day at bedtime, oral): attacks immediately stopped

Nc1nc2c(ncn2COCCO)c(=O)[nH]1 [acyclovir]
effectiveness in treating CFS compared with placebo [4]: no more effective than a placebo
